Data published in US11066414B2, “Cot modulators and methods of use thereof” (Gilead Sciences, Inc., priority 2015, dated 2021).
Where two headings read alike, the source gives them in different places.

Key:
[1] = tested on: TNFα; assay: Cot Monocyte TNFα Cell Based Assay
[2] = molecular target: Human Cot (Homo sapiens (Human), UniProt P41279); assay: High Throughput Cot Biochemical Assay
[3] = Homo sapiens, Monocyte, read-out: EC50 TNF, LPS-stimulated human monocytes, TNFα
[4] = IC50 HTRF, Cot HTRF (TR-FRET) biochemical assay
[5] = read-out: EC50 TNF, LPS-stimulated human monocytes, TNFα TR-FRET
[6] = read-out: IC50 HTRF, Cot HTRF (TR-FRET KinEASE) biochemical assay, 400 μM ATP
[7] = read-out: EC50 TNF, LPS-stimulated human monocytes, TNFα
[8] = read-out: IC50 HTRF, Cot HTRF (TR-FRET) biochemical assay
[9] = Homo sapiens, Monocyte, read-out: EC50 TNF, LPS-stimulated human monocytes, TNFα TR-FRET
[10] = IC50 HTRF, Cot HTRF (TR-FRET KinEASE) biochemical assay, 400 μM ATP

Human Cot, sequence (P41279 30-397): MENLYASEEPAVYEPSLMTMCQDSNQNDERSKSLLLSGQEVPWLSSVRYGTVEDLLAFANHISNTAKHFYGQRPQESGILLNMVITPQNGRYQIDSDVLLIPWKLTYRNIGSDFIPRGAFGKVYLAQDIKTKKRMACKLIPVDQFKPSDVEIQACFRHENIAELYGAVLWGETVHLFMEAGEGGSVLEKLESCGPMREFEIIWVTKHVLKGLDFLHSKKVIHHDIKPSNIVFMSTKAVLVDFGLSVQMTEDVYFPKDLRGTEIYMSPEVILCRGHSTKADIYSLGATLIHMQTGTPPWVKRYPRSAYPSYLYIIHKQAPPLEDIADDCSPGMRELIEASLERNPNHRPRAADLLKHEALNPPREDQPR

Row | SMILES | EC50 [1, 3] [nM] | IC50 [2, 4] [nM] | other results
1 | CC(C)(C)CNc1c(C#N)cnc2c(Cl)cc(N[C@H](c3cn(C4(C5CC5)CC4)nn3)c3cccc4ncccc34)cc12 [Example 691, (S)-6-(((1-([1,1′-bi(cyclopropan)]-1-yl)-1H-1,2,3-triazol-4-yl)(quinolin-5-yl)methyl)amino)-8-chloro-4-(neopentylamino)quinoline-3-carbonitrile] | 66 | 6 | 
2 | CC(C)(C)N1CCC(n2cc([C@@H](Nc3cc(Cl)c4ncc(C#N)c(Nc5ccc(F)c(Cl)c5)c4c3)c3ccc4c(c3)CNC4)nn2)CC1 [Example 57, (S)-6-(((1-(1-(tert-butyl)piperidin-4-yl)-1H-1,2,3-triazol-4-yl)(isoindolin-5-yl)methyl)amino)-8-chloro-4-((3-chloro-4-fluorophenyl)amino)quinoline-3-carbonitrile] | 5990 | 60 | 
3 | CCC1(n2cc([C@@H](Nc3cc(Cl)c4ncc(C#N)c(NCC(C)(C)C)c4c3)c3cccc4c(=O)n(C)ccc34)nn2)CC1 [Example 756, (S)-8-chloro-6-(((1-(1-ethylcyclopropyl)-1H-1,2,3-triazol-4-yl)(2-methyl-1-oxo-1,2-dihydroisoquinolin-5-yl)methyl)amino)-4-(neopentylamino)quinoline-3-carbonitrile] | 26 | 3 | 
4 | CC(C)n1cc([C@@H](Nc2cc(Cl)c3ncc(C#N)c(Nc4ccc(F)c(Cl)c4)c3c2)c2cccnc2Cl)nn1 [Example 297, (S)-8-chloro-4-((3-chloro-4-fluoro-phenyl)amino)-6-(((2-chloropyridin-3-yl)(1-isopropyl-1H-1,2,3-triazol-4-yl)methyl)amino)quinoline-3-carbonitrile] | 200 | 9 | 
5 | [2H][C@](Nc1cc(C#N)c2ncc(C#N)c(NCC(C)(C)C)c2c1)(c1ccc(F)nc1)c1cn(C)nn1 [Example 99, (S)-6-(((6-fluoropyridin-3-yl)(1-methyl-1H-1,2,3-triazol-4-yl)methyl-d)amino)-4-(neopentylamino)quinoline-3,8-dicarbonitrile] | 143 | 3 | 
6 | Cn1cnc2c([C@H](Nc3cc(Cl)c4ncc(C#N)c(NCC(C)(C)C)c4c3)c3cn(C45CC(C4)C5)nn3)cccc2c1=O [Example 728, (S)-6-(((1-(bicyclo[1.1.1]pentan-1-yl)-1H-1,2,3-triazol-4-yl)(3-methyl-4-oxo-3,4-dihydroquinazolin-8-yl)methyl)amino)-8-chloro-4-(neopentylamino)quinoline-3-carbonitrile] | 154 | 7 | 
7 | CCN1Cc2ccc([C@H](Nc3cc(Cl)c4ncc(C#N)c(Nc5ccc(F)c(Cl)c5)c4c3)c3c[nH]nn3)cc2C1 [Example 53, (S)-8-chloro-4-((3-chloro-4-fluorophenyl)amino)-6-(((2-ethylisoindolin-5-yl)(1H-1,2,3-triazol-4-yl)methyl)-amino)quinoline-3-carbonitrile] | 4020 | 81 | 
8 | N#Cc1cnc2c(Cl)cc(N[C@H](c3cn(C4COC4)nn3)c3csc(N4CCOCC4)n3)cc2c1Nc1ccc(F)c(Cl)c1 [Example 302, (S)-8-chloro-4-((3-chloro-4-fluoro-phenyl)amino)-6-(((2-morpholinothiazol-4-yl)(1-(oxetan-3-yl)-1H-1,2,3-triazol-4-yl)methyl)amino)quinoline-3-carbonitrile] | 472 | 10 | 
9 | CC(C)(CNc1c(C#N)cnc2c(C#N)cc(N[C@H](c3cn(C4(C(F)F)CC4)nn3)c3cccc4c(=O)[nH]ccc34)cc12)C(F)(F)F [Example 842] |  |  | EC50 [1, 5]: 563 nM; IC50 [2, 6]: 3 nM
10 | CN(C)CCn1cc([C@@H](Nc2cc(Cl)c3ncc(C#N)c(Nc4ccc(F)c(Cl)c4)c3c2)c2cscn2)nn1 [Example 355, (S)-8-chloro-4-((3-chloro-4-fluorophenyl)amino)-6-(((1-(2-(dimethylamino)ethyl)-1H-1,2,3-triazol-4-yl)(thiazol-4-yl)methyl)-amino)quinoline-3-carbonitrile] | 194 | 5 | 
11 | Cc1nc(F)ccc1[C@H](Nc1cc(Cl)c2ncc(C#N)c(NCC(C)(C)C)c2c1)c1cn(C2(C(=O)O)CC2)nn1 [Example 517, (S)-1-(4-(((8-chloro-3-cyano-4-(neopentylamino)quinolin-6-yl)amino)(6-fluoro-2-methylpyridin-3-yl)methyl)-1H-1,2,3-triazol-1-yl)cyclopropane-1-carboxylic acid] | 1000 | 3 | 
12 | Cc1nc(F)ccc1[C@H](Nc1cc(Cl)c2ncc(C#N)c(NCC(C)(C)C)c2c1)c1cn([C@@H]2C[C@@H]2F)nn1 [Example 579, 8-chloro-6-(((S)-(6-fluoro-2-methylpyridin-3-yl)(1-((lR,2S)-2-fluorocyclopropyl)-1H-1,2,3-triazol-4-yl)methyl)amino)-4-(neopentylamino)quinoline-3-carbonitrile] |  |  | EC50 [1, 7]: 24 nM; IC50 [2, 8]: 2 nM
13 | CCn1ccc2c([C@H](Nc3cc(Cl)c4ncc(C#N)c(NCC(C)(C)C)c4c3)c3cn(C4(C)CC4)nn3)cccc2c1=O [Example 773, (S)-8-chloro-6-(((2-ethyl-1-oxo-1,2-dihydroisoquinolin-5-yl)(1-(1-methylcyclopropyl)-1H-1,2,3-triazol-4-yl)methyl)amino)-4-(neopentylamino)quinoline-3-carbonitrile] | 35 | 2 | 
14 | Cc1nc(F)ccc1[C@H](Nc1cc(C#N)c2ncc(C#N)c(NCC(C)(C)C(F)(F)F)c2c1)c1cn(C2(C)CC2)nn1 [Example 846, (S)-6-(((6-fluoro-2-methylpyridin-3-yl)(1-(1-methylcyclopropyl)-1H-1,2,3-triazol-4-yl)methyl)amino)-4-((3,3,3-trifluoro-2,2-dimethylpropyl)amino)quinoline-3,8-dicarbonitrile] |  |  | EC50 [1, 9]: 17 nM; IC50 [2, 10]: 2 nM
15 | CC(C)(C)CNc1c(C#N)cnc2c(C#N)cc(N[C@@H](c3ccc4cccnc4c3)c3cn(C4(C(F)F)CC4)nn3)cc12 [Example 708, (S)-6-(((1-(1-(difluoromethyl)cyclopropyl)-1H-1,2,3-triazol-4-yl)(quinolin-7-yl)methyl)amino)-4-(neopentylamino)quinoline-3,8-dicarbonitrile] | 176 | 6 | 
16 | [2H][C@](Nc1cc(C#N)c2ncc(C#N)c(N[C@H](CC#N)c3ccccc3)c2c1)(c1ccc(F)nc1)c1cn(C2CC2)nn1 [Example 100, 4-(((R)-2-cyano-1-phenylethyl)amino)-6-(((S)-(1-cyclopropyl-1H-1,2,3-triazol-4-yl)(6-fluoropyridin-3-yl)methyl-d)amino)quinoline-3,8-dicarbonitrile] | 142 | 3 | 
17 | Cn1ccc2c([C@H](Nc3cc(Cl)c4ncc(C#N)c(NCC(C)(C)C)c4c3)c3cn(C45CCC(CC4)CC5)nn3)cccc2c1=O [Example 939, (S)-6-(((1-(bicyclo[2.2.2]octan-1-yl)-1H-1,2,3-triazol-4-yl)(2-methyl-1-oxo-1,2-dihydroisoquinolin-5-yl)methyl)amino)-8-chloro-4-(neopentylamino)quinoline-3-carbonitrile] |  |  | EC50 [1, 9]: 104 nM; IC50 [2, 10]: 18 nM
18 | Cc1nc(F)ccc1[C@H](Nc1cc(Cl)c2ncc(C#N)c(N[C@H]3[C@@H]4COC[C@@H]43)c2c1)c1cn(C2(C(F)(F)F)CC2)nn1 [Example 608, 4-(((lR,5S,6r)-3-oxabicyclo[3.1.0]hexan-6-yl)amino)-8-chloro-6-(((S)-(6-fluoro-2-methylpyridin-3-yl)(1-(1-(trifluoromethyl)cyclo-propyl)-1H-1,2,3-triazol-4-yl)methyl)amino)-quinoline-3-carbonitrile] |  |  | EC50 [1, 7]: 314 nM; IC50 [2, 8]: 42 nM
19 | N#Cc1cnc2c(Cl)cc(N[C@@H](c3ccc4c(c3)CNC4)c3c[nH]nn3)cc2c1Nc1ccc(F)c(Cl)c1 [Example 55, (S)-8-chloro-4-((3-chloro-4-fluorophenyl)amino)-6-((isoindolin-5-yl(1H-1,2,3-triazol-4-yl)methyl)amino)quinoline-3-carbonitrile] | 10800 | 58 | 
20 | Cc1nc(F)ccc1[C@H](Nc1cc(C#N)c2ncc(C#N)c(NCC(C)(C)C)c2c1)c1nnn(C2CC2)c1C1CC1 [Example 857, (S)-6-(((l,5-dicyclopropyl-1H-1,2,3-triazol-4-yl)(6-fluoro-2-methylpyridin-3-yl)methyl)amino)-4-(neopentylamino)quinoline-3,8-dicarbonitrile] |  |  | EC50 [1, 5]: 180 nM; IC50 [2, 6]: 4 nM
21 | Cn1nccc1[C@H](Nc1cc(Cl)c2ncc(C#N)c(Nc3cnc(F)c(F)c3)c2c1)c1c[nH]nn1 [Example 165, (S)-8-chloro-4-((5,6-difluoropyridin-3-yl)amino)-6-(((1-methyl-1H-pyrazol-5-yl)(1H-1,2,3-triazol-4-yl)methyl)amino)quinoline-3-carbonitrile] | 2370 | 9 | 
22 | CC(C)(C)CNc1c(C#N)cnc2c(C#N)cc(N[C@H](c3cn(C4(C(N)=O)CC4)nn3)c3cccc4ncsc34)cc12 [Example 409, (S)-1-(4-(benzo[d]thiazol-7-yl((3,8-dicyano-4-(neopentylamino)quinolin-6-yl)amino)methyl)-1H-1,2,3-triazol-1-yl)cyclopropane-1-carboxamide] | 559 | 1 | 
23 | Cc1ncccc1[C@H](Nc1cc(Cl)c2ncc(C#N)c(Nc3cnc(F)c(F)c3)c2c1)c1cn(C2CC2)nn1 [Example 150, (S)-8-chloro-6-(((1-cyclopropyl-1H-1,2,3-triazol-4-yl)(2-methylpyridin-3-yl)methyl)amino)-4-((5,6-difluoropyridin-3-yl)amino)quinoline-3-carbonitrile] | 154 | 4 | 
